Laboratory results: ChEMBL document CHEMBL2331244, “Selective 3-phosphoinositide-dependent kinase 1 (PDK1) inhibitors: dissecting the function and pharmacology of PDK1” (J Med Chem, 2013)
Blank lines part the entries; values can stand above or below the compound they belong to.

Assays:
[1] = molecular target: T1, 3-phosphoinositide-dependent protein kinase 1 (Homo sapiens) (UniProt O15530); experiment: Agonist activity at PDK1 (unknown origin) using T308tide as substrate assessed as concentration required to elicit 50% response in presence of [gamma-32P]ATP
T1 sequence (whole entry): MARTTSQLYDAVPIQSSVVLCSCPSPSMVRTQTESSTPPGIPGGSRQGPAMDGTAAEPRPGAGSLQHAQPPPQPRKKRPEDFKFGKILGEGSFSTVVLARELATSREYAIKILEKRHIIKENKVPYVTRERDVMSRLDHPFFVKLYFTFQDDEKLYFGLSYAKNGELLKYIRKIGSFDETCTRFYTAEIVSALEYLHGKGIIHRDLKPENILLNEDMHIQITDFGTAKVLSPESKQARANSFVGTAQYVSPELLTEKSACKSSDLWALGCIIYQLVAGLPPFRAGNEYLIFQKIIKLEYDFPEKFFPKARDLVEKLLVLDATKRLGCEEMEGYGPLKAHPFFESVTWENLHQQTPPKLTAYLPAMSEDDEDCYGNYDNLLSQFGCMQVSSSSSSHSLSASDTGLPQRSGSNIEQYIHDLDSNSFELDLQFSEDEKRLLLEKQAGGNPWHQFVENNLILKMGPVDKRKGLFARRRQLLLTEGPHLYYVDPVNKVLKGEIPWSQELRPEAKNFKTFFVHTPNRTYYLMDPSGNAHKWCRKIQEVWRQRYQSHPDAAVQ

[2] = molecular target: Serine/threonine-protein kinase mTOR (Homo sapiens, UniProt P42345); experiment: Inhibition of MTOR (unknown origin)
[3] = molecular target: T2, 3-phosphoinositide-dependent protein kinase 1 (Homo sapiens, UniProt O15530); experiment: Inhibition of PDK1 (unknown origin)
T2 sequence (O15530 whole entry): T1 sequence (whole entry)

[4] = Antiproliferative activity against PTEN-deficient human […] cells after 72 hrs by ATP ViaLight assay; format: functional, cell-based
[5] = system: PC-3; experiment: Antiproliferative activity against PTEN-deficient human PC3 cells after 72 hrs by ATP ViaLight assay; format: functional, cell-based; details: PC-3, 72 h
[6] = system: LS-513; experiment: Antiproliferative activity against human LS513 cells harboring KRAS mutant after 72 hrs by ATP ViaLight assay; format: functional, cell-based; details: LS-513, 72 h
[7] = system: MCF7; experiment: Antiproliferative activity against human MCF7 cells harboring PI3KCA mutant after 72 hrs by ATP ViaLight assay; format: functional, cell-based; details: MCF7, 72 h
[8] = system: MDA-MB-453; experiment: Antiproliferative activity against human MDA-MB-453 cells harboring PI3KCA mutant after 72 hrs by ATP ViaLight assay; format: functional, cell-based; details: MDA-MB-453, 72 h
[9] = Antiproliferative activity against PTEN-deficient human U87 cells after 72 hrs by ATP ViaLight assay; format: functional, cell-based, U-87MG ATCC; details: U-87 MG
[10] = system: NCI-H1437; experiment: Antiproliferative activity against human NCI-H1437 cells after 72 hrs by ATP ViaLight assay; format: functional, cell-based; details: NCI-H1437, 72 h
[11] = system: HCT-116; experiment: Antiproliferative activity against human HCT116 cells harboring PI3KCA/KRAS double mutant after 72 hrs by ATP ViaLight assay; format: functional, cell-based; details: HCT-116, 72 h
[12] = system: A-427; experiment: Antiproliferative activity against human A427 cells harboring KRAS mutant after 72 hrs by ATP ViaLight assay; format: functional, cell-based; details: A-427, 72 h
[13] = Antiproliferative activity against human NCI-H1915 cells harboring KRAS mutant after 72 hrs by ATP ViaLight assay; format: functional, cell-based; details: NCI-H1915, 72 h
[14] = system: BT-474; experiment: Antiproliferative activity against human BT474 cells harboring PI3KCA mutant after 72 hrs by ATP ViaLight assay; format: functional, cell-based; details: BT-474, 72 h
[15] = system: UMC-11; experiment: Antiproliferative activity against human UMC11 cells after 72 hrs by ATP ViaLight assay; format: functional, cell-based; details: UMC-11, 72 h
[16] = system: T47D; experiment: Antiproliferative activity against human T47D cells harboring PI3KCA mutant after 72 hrs by ATP ViaLight assay; format: functional, cell-based
[17] = system: NCI-H446; experiment: Antiproliferative activity against PTEN-deficient human NCI-H446 cells after 72 hrs by ATP ViaLight assay; format: functional, cell-based; details: NCI-H446, 72 h
[18] = system: A549; experiment: Antiproliferative activity against human A549 cells harboring KRAS mutant after 72 hrs by ATP ViaLight assay; format: functional, cell-based; details: A549, 72 h
[19] = system: LNCaP; experiment: Antiproliferative activity against PTEN-deficient human LNCAP cells after 72 hrs by ATP ViaLight assay; format: functional, cell-based
[20] = system: MDA-MB-231; experiment: Antiproliferative activity against human MDA-MB-231 cells harboring KRAS mutant after 72 hrs by ATP ViaLight assay; format: functional, cell-based; details: MDA-MB-231, 72 h
[21] = molecular target: T2, 3-phosphoinositide-dependent protein kinase 1; experiment: Inhibition of recombinant PDK1 (unknown origin) using RPRAATF peptide as substrate assessed as substrate phosphorylation by scintillation counting analysis in presence of [gamma-32P]ATP
[22] = molecular target: T1, 3-phosphoinositide-dependent protein kinase 1 (Homo sapiens); experiment: Agonist activity at human N-terminal His6-tagged PDK1 amino acid residues 51 to 359 expressed in insect sf21 cells using T308tide as substrate at 313 uM incubated for 60 mins prior to substrate addition measured after 60 mins by ATP depletion assay

- IC50 [2]: 1.3 µM
- IC50 [3]: 0.0265 µM
Structure (SMILES): O=P(O)(O)O[C@@H]1[C@@H](OP(=O)(O)O)[C@@H](OP(=O)(O)O)[C@@H](OCc2ccccc2)[C@H](OP(=O)(O)O)[C@H]1OP(=O)(O)O

- Activity [22]: 33%
Structure (SMILES): COc1ccc(CC(C(=O)O)c2ccccc2)cc1 (configuration not stated)

More lines, now with the values behind:

Structure (SMILES): O=C(O)CSC(CC(=O)c1ccc(Cl)cc1)c1ccccc1 (configuration not stated)
- Activity [1]: 34 µM

Structure (SMILES): O=C(N[C@@H](COc1ccc2[nH]c(=O)[nH]c2c1)c1ccccc1)c1cccn(Cc2ccc(F)c(F)c2)c1=O
- EC50 [4]: > 9 µM
- EC50 [5]: > 9 µM
- EC50 [6]: > 9 µM
- EC50 [7]: > 9 µM
- EC50 [8]: > 9 µM
- EC50 [9]: > 9 µM
- EC50 [10]: > 9 µM
- EC50 [11]: > 9 µM
- EC50 [12]: > 9 µM
- EC50 [13]: > 9 µM
- EC50 [14]: > 9 µM
- EC50 [15]: > 9 µM
- EC50 [16]: > 9 µM
- EC50 [17]: > 9 µM
- EC50 [18]: > 9 µM
- EC50 [19]: > 9 µM
- EC50 [20]: > 9 µM

Structure (SMILES): NC(N)=Nc1ccc(-n2nc(C(F)(F)F)cc2-c2ccc3c(ccc4ccccc43)c2)cc1
- IC50 [21]: 2 µM
